Tests used:
[1] = biological target: T1, SHP-2 (Homo sapiens, UniProt Q06124); assay: Selectivity pNPP assay, full-length PTPs: SHP-2; type: biochemical; conditions: full-length PTP, 10 nM, 500 µM pNPP
T1 construct: GST (N); made in house; host or cells: E. coli BL21 (DE3)
T1 sequence (Q06124 1-593): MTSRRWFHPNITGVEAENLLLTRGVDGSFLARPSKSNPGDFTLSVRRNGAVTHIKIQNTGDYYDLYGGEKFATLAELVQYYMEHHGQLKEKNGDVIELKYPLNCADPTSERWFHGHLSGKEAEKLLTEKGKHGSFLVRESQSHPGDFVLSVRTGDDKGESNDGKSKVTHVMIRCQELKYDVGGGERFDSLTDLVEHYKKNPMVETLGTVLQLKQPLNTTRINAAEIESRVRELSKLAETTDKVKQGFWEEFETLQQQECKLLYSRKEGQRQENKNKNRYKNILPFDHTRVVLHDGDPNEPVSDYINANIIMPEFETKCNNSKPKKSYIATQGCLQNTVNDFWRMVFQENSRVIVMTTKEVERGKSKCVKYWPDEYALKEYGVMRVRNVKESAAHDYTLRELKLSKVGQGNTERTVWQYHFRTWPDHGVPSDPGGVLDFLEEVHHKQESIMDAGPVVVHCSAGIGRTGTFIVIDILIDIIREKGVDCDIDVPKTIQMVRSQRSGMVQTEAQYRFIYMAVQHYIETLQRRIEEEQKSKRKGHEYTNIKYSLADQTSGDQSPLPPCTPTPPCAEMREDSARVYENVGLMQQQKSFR
Text: Constructs were transformed into BL21 (DE3) E. coli cells. Fusion proteins were purified on a glutathione sepharose column.

[2] = test system: GluN2B (Y1472), Pyk2 (Y402), ERK1/2 (Y204/187) in cortical neurons; assay: Tyr phosphorylation of STEP substrates in cortical neuronal cultures (Western blot); type: cell-based, rat; conditions: 1 µM dose, 1 h, relative to vehicle
Protocol: Primary cortical neurons were isolated from Sprague Dawley rat embryos (E18) (Charles River Laboratories, Wilmington, MA) as previously described. In some experiments, cortical neurons were made from WT and STEP KO mouse embryos (E18). Neurons were allowed to grow for 18–21 d in CO2 incubator before addition of compounds at indicated doses for 1 h. Immediately following treatments, neurons were lysed in RadioImmuno Precipitation Assay (RIPA) buffer supplied with protease inhibitor cocktail (Roche Applied Science, Indianapolis, IN) and phosphatase inhibitors (NaF and Na3VO4). All experiments were replicated four times with four independent batches of cultures.
Samples were prepared and resolved by SDS-PAGE, transferred to nitrocellulose membrane, and incubated with phospho-specific antibodies (anti-pY^204/187 ERK1/2, anti-pY^402 Pyk2, anti-pY^1472 GluN2B) or total protein antibodies (anti-ERK2, anti-Pyk2, and anti-NR2B) overnight at 4°C. Immunoreactivity was visualized using a Chemiluminescent substrate kit (Pierce Biotechnology, Rockford, IL) and detected using a G:BOX with the image program GeneSnap (Syngene, Cambridge, UK). All densitometric quantifications were performed using the Genetools program.

[3] = test system: GluN2B (Y1472), Pyk2 (Y402), ERK1/2 (Y204/187) in cortex; assay: Tyr phosphorylation of STEP substrates in cortex of WT mice after i.p. injection; type: in vivo, mouse; conditions: C57BL/6 mice, 10 mg/kg i.p., 3 h postinjection, relative to vehicle
Protocol: Wild-type, male C57BL/6 mice (3–6 mo) were used for all studies. […] Cortical tissues were dissected out 3 h postinjection and processed for subcellular fractionation. […] Homogenates were centrifuged at 800 × g to remove nuclei and large debris (P1). Synaptosomal fractions (P2) were prepared from S1 by centrifugation at 9,200 × g for 15 min. The P2 pellet was washed twice and was resuspended in TEVP buffer. […] Samples were prepared and resolved by SDS-PAGE, transferred to nitrocellulose membrane, and incubated with phospho-specific antibodies (anti-pY^204/187 ERK1/2, anti-pY^402 Pyk2, anti-pY^1472 GluN2B) or total protein antibodies (anti-ERK2, anti-Pyk2, and anti-NR2B) overnight at 4°C. Immunoreactivity was visualized using a Chemiluminescent substrate kit (Pierce Biotechnology, Rockford, IL) and detected using a G:BOX with the image program GeneSnap (Syngene, Cambridge, UK). All densitometric quantifications were performed using the Genetools program.

[4] = test system: ERK1/2 (Y204/187) and Pyk2 (Y402); assay: Tyr phosphorylation of ERK1/2 and Pyk2 in different organs of WT and STEP KO mice; type: in vivo, mouse
[5] = Stability in imidazole buffer by 19F NMR; type: physicochemical; conditions: 1 h
Protocol: The tube was allowed to incubate at ambient temperature with shaking for 1 h. The mixture was diluted with 150 µL of DMSO-d6 and transferred to an NMR tube containing a capillary of trifluoroacetic acid as an external standard (−76.55 ppm). The stability of the compound in the buffer was confirmed by observing no differences in the sensitive ^19F-NMR spectra (Figure S4). As a control for compound modification, the experiment was repeated with the addition of 1 mM GSH in the incubation buffer.

[6] = test system: 3xTg-AD and WT mice; assay: Y-maze alternation task; type: in vivo, mouse; conditions: 10 mg/kg i.p. 3 h prior
Protocol: The Y-maze apparatus consisted of three dark gray arms (42×4.8×20 cm). […] The total number of arm entries was recorded, as was the number of entries representing alternation behavior (i.e., sequential entry into all three arms). All four paws of the mouse had to enter an arm for it to count as an arm entry. Percentage spontaneous alternation = (number of alternations)/(total arm entries – 2). […] A total number of 20 WT and 11 AD mice were used in the Y-maze task.

[7] = test system: Aβ and phospho-tau; assay: Aβ and phospho-tau levels in 12-mo-old 3xTg-AD mice; type: in vivo, mouse; conditions: 10 mg/kg i.p.
Protocol: Time spent with either a novel or familiar object was recorded using ANY-maze software. Square-root transformation was used to meet the assumptions of normality and equal variance of the raw data. All histograms are presented as means ± s.e.m. Student's t test was applied to determine significance differences (*p<0.05; WT-Veh, n = 10; WT TC, n = 11; AD-Veh, n = 22; AD-TC, n = 19). […] CTFs and Aβ are indicated by arrowheads. Representative 7PA2-CM (Aβ-enriched conditioned medium) immunoprecipitation is shown on right panel. Data are presented as means ± s.e.m. […] Data are presented as means ± s.e.m. […] (TIF) Click here for additional data file.

[8] = cited from earlier work

## Cl.Nc1cc(C(F)(F)F)cc2c1SSSSS2 [TC-2153, 8-(trifluoromethyl)-1,2,3,4,5-benzopentathiepin-6-amine hydrochloride]
[1]
  IC50: 6.9 µM
[2]
  pERK1/2 (Y204/187), phospho-signal normalized to total protein and GAPDH: 2.39±0.18
  pGluN2B (Y1472), phospho-signal normalized to total protein and GAPDH: 2.07±0.15
  pPyk2 (Y402), phospho-signal normalized to total protein and GAPDH: 1.81±0.21
[3]
  pERK1/2 in cortex (P2 fraction): 2.52±0.16
  pGluN2B in cortex (P2 fraction): 1.66±0.28
  pPyk2 in cortex (P2 fraction): 1.80±0.30
[4]; STEP KO mice
  pERK1/2 and pPyk2 in hippocampus and frontal cortex of STEP KO mice: did not increase the Tyr phosphorylation of these substrates over baseline levels
[4]; WT mice, 10 mg/kg i.p., 3 h
  pERK1/2 and pPyk2 in frontal cortex and hippocampus: significant increase in pERK1/2 and pPyk2
[4]; mice, 10 mg/kg i.p., 3 h
  pERK1/2 and pPyk2 in cerebellum, spleen, kidney, pancreas (tissues without STEP): not in the cerebellum or in all tissues tested outside the brain
[5]; 1 mM GSH in pH 7.0 imidazole buffer
  Stability with GSH (19F NMR): compound modification clearly observed
[5]; pH 7.0 imidazole buffer
  Stability in assay conditions (19F NMR): stable and did not degenerate in the assay conditions
[6]
  Y-maze arm entries (general motor activity): no significant change in arm entries
[6]; WT mice, vehicle 74.98±2.19
  Y-maze percentage spontaneous alternation, WT mice: 73.45±3.19
[7]
  Aβ or phospho-tau levels: no significant changes in Aβ or phospho-tau levels
[7]; row
  Aβ or phospho-tau levels: did not affect the Aβ and tau brain pathology
[8]
  Solubility in aqueous solution: reasonable solubility in aqueous solution

From PMC4122355, “Inhibitor of the Tyrosine Phosphatase STEP Reverses Cognitive Deficits in a Mouse Model of Alzheimer's Disease” (PLoS Biology, 2014)
